Tests used:
morningglory = test: Test B pre-/postemergence herbicide test; format: in vivo, Ipomoea coccinea
In short: (§1)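 Plants compared with untreated controls 13–15 days post-treatment and given a visual 0–100 injury score. Applications: preemergence to seeds; postemergence at 1- to 4-leaf (2–18 cm); paddy species flooded, 2-leaf stage. Vehicle non-phytotoxic, surfactant included.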

Surinam grass = test: Test B pre-/postemergence herbicide test; format: in vivo, Urochloa decumbens
In short: (§2)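 Test chemicals in a non-phytotoxic solvent mixture with surfactant were applied preemergence to seeded species and postemergence to plants 2-18 cm tall (1- to 4-leaf stage); rice and barnyardgrass were also tested in a flooded paddy at the 2-leaf stage. Visual rating versus controls after 13-15 days in greenhouse, scale 0 (no effect) to 100 (complete control).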

rice = test: Test B flooded paddy test; format: in vivo, Oryza sativa; conditions: scale 0 to 100 (0 no effect, 100 complete control)
In short: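 Paddy species grown to the 2-leaf stage under flooding; blackgrass sprayed postemergence at 2–18 cm (1- to 4-leaf stage). Plants kept in a greenhouse for 13 to 15 days, then visually rated against controls on 0 (no effect) to 100 (complete control).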

corn = test: Test B pre-/postemergence herbicide test; format: in vivo, Zea mays
In short: as §2

lambsquarters = test: Test B pre-/postemergence herbicide test; format: in vivo, Chenopodium album
In short: as §2

blackgrass = test: Test B postemergence herbicide test; format: in vivo, Alopecurus myosuroides
In short: (§3)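 Formulated test chemicals went onto postemergence plants measuring 2 to 18 cm, at one to four leaves. For the paddy assay, species had reached two leaves. Scoring took place 13–15 days later by eye, relative to untreated plants, using 0 for no effect up to 100 for full control.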

pigweed = test: Test B pre-/postemergence herbicide test; format: in vivo, Amaranthus retroflexus
In short: as §2

barnyardgrass [1] = test: Test B flooded paddy test; format: in vivo, Echinochloa crus-galli; conditions: scale 0 to 100 (0 no effect, 100 complete control)
In short: as §3

giant foxtail = test: Test B pre-/postemergence herbicide test; format: in vivo, Setaria faberi
In short: as §2

wheat = test: Test B postemergence herbicide test; format: in vivo, Triticum aestivum; set-up: key to Wheat plant response rating: 0 = no effect, 100 = complete control
In short: (§4)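 Plants grow to 1- to 4-leaf stage (2–18 cm) for postemergence spraying, or to 2-leaf stage for the paddy test. Formulated compound is applied. Greenhouse holding lasts 13–15 days. Response is scored visually relative to controls, 0 no effect to 100 complete control; a dash means no result.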

[2] = test system: small flower umbrella sedge; test: Test B flooded paddy test; format: in vivo, Cyperus difformis; conditions: scale 0 to 100 (0 no effect, 100 complete control)
In short: as §3

large crabgrass = test: Test B pre-/postemergence herbicide test; format: in vivo, Digitaria sanguinalis
In short: as §2

barnyardgrass [3] = test: Test B pre-/postemergence herbicide test; format: in vivo, Echinochloa crus-galli
In short: as §1

wild oat = test: Test B postemergence herbicide test; format: in vivo, Avena fatua
In short: as §4

velvetleaf = test: Test B pre-/postemergence herbicide test; format: in vivo, Abutilon theophrasti
In short: as §2

ducksalad = test: Test B flooded paddy test; format: in vivo, Heteranthera limosa; conditions: scale 0 to 100 (0 no effect, 100 complete control)
In short: as §3

cocklebur = test: Test B pre-/postemergence herbicide test; format: in vivo, Xanthium strumarium
In short: as §1

[4] = 125 g ai/ha, 0 is no effect, 100 is complete control, preemergence
[5] = 125 g ai/ha, visual rating, scale 0 (no effect) to 100 (complete control), postemergence
[6] = 500 g ai/ha, visual rating, 0 = no effect, 100 = complete control, preemergence
[7] = postemergence, 500 g ai/ha, scale 0 to 100, 0 is no effect, 100 is complete control
[8] = Postemergence, 500 g ai/ha, scale 0 (no effect) to 100 (complete control)
[9] = postemergence, 125 g ai/ha, scale 0 to 100

CCc1nn(C(C)(C)C)nc1C(=O)Nc1cc(C(=O)N(C)C)ccc1F [Compound 361]
Plant response rating (0 to 100 scale), Morningglory (morningglory; [4]): 10
Morningglory plant response rating (morningglory; [5]): 10
Plant response rating, Morningglory (morningglory; [6]): 60
Morningglory plant response rating (morningglory; [7]): 80
Plant response rating (0 to 100 scale), Surinam Grass (Surinam grass; [4]): 50
Surinam Grass plant response rating (Surinam grass; [5]): 10
Plant response rating, Surinam Grass (Surinam grass; [6]): 90
Surinam Grass plant response rating (Surinam grass; [7]): 10
Rice plant response rating (rice; 1000 g ai/ha): 90
Plant response rating (0 to 100 scale), Corn (corn; [4]): 30
Corn plant response rating (corn; [5]): 0
Plant response rating, Corn (corn; [6]): 70
Corn plant response rating (corn; [7]): 0
Plant response rating (0 to 100 scale), Lambsquarters (lambsquarters; [4]): 80
Lambsquarters plant response rating (lambsquarters; [5]): 70
Plant response rating, Lambsquarters (lambsquarters; [6]): 100
Lambsquarters plant response rating (lambsquarters; [7]): 70
Blackgrass plant response rating (blackgrass; [5]): 10
Blackgrass plant response rating (blackgrass; [7]): 40
Plant response rating (0 to 100 scale), Pigweed (pigweed; [4]): 80
Pigweed plant response rating (pigweed; [5]): 20
Plant response rating, Pigweed (pigweed; [6]): 100
Pigweed plant response rating (pigweed; [7]): 40
Barnyardgrass plant response rating (barnyardgrass [1]; 1000 g ai/ha): 80
Plant response rating (0 to 100 scale), Foxtail, Giant (giant foxtail; [4]): 50
Foxtail, Giant plant response rating (giant foxtail; [5]): 20
Plant response rating, Foxtail, Giant (giant foxtail; [6]): 100
Foxtail, Giant plant response rating (giant foxtail; [7]): 30
Wheat plant response rating (wheat; [5]): 0
Wheat plant response rating (wheat; [7]): 0
Sedge, Umbrella plant response rating ([2]; 1000 g ai/ha): 90
Plant response rating (0 to 100 scale), Crabgrass, Large (large crabgrass; [4]): 80
Crabgrass, Large plant response rating (large crabgrass; [5]): 10
Plant response rating, Crabgrass, Large (large crabgrass; [6]): 100
Crabgrass, Large plant response rating (large crabgrass; [7]): 10
Plant response rating (0 to 100 scale), Barnyardgrass (barnyardgrass [3]; [4]): 80
Barnyardgrass plant response rating (barnyardgrass [3]; [5]): 0
Plant response rating, Barnyardgrass (barnyardgrass [3]; [6]): 100
Barnyardgrass plant response rating (barnyardgrass [3]; [7]): 10
Oat, Wild plant response rating (wild oat; [5]): 0
Oat, Wild plant response rating (wild oat; [7]): 20
Plant response rating (0 to 100 scale), Velvetleaf (velvetleaf; [4]): 20
Velvetleaf plant response rating (velvetleaf; [5]): 10
Velvetleaf plant response rating (velvetleaf; [7]): 30
Ducksalad plant response rating (ducksalad; 1000 g ai/ha): 90
Plant response rating (0 to 100 scale), Cocklebur (cocklebur; [4]): 0
Cocklebur plant response rating (cocklebur; [5]): 10
Plant response rating, Cocklebur (cocklebur; [6]): 50
Cocklebur plant response rating (cocklebur; [7]): 20

CC(C)(C)n1nc(Br)c(C(=O)Nc2cccc(C(=O)NC3CC3)c2)n1 [Compound 435]
Morningglory plant response rating (morningglory; [8]): 90
Morningglory plant response rating (morningglory; [9]): 70
Surinam Grass plant response rating (Surinam grass; [8]): 30
Surinam Grass plant response rating (Surinam grass; [9]): 20
Rice plant response rating (rice; 125 g ai/ha): 0
Corn plant response rating (corn; [8]): 30
Corn plant response rating (corn; [9]): 20
Lambsquarters plant response rating (lambsquarters; [8]): 60
Lambsquarters plant response rating (lambsquarters; [9]): 50
Blackgrass plant response rating (blackgrass; [8]): 30
Blackgrass plant response rating (blackgrass; [9]): 20
Pigweed plant response rating (pigweed; [8]): 60
Pigweed plant response rating (pigweed; [9]): 40
Barnyardgrass plant response rating (barnyardgrass [1]; 125 g ai/ha): 0
Foxtail, Giant plant response rating (giant foxtail; [8]): 30
Foxtail, Giant plant response rating (giant foxtail; [9]): 20
Wheat plant response rating (wheat; 500 g ai/ha, scale 0 to 100, 0 no effect, 100 complete control, preemergence): 10
Wheat plant response rating (wheat; [8]): 60
Wheat plant response rating (wheat; [9]): 20
Sedge, Umbrella plant response rating ([2]; 125 g ai/ha): 0
Crabgrass, Large plant response rating (large crabgrass; [8]): 30
Crabgrass, Large plant response rating (large crabgrass; [9]): 10
Barnyardgrass plant response rating (barnyardgrass [3]; Postemergence, 125 g ai/ha, scale 0 (no effect) to 100 (complete control)): 10
Barnyardgrass plant response rating (barnyardgrass [3]; [8]): 10
Oat, Wild plant response rating (wild oat; [8]): 60
Oat, Wild plant response rating (wild oat; [9]): 50
Velvetleaf plant response rating (velvetleaf; [8]): 20
Velvetleaf plant response rating (velvetleaf; [9]): 10
Ducksalad plant response rating (ducksalad; 125 g ai/ha): 0
Cocklebur plant response rating (cocklebur; [8]): 20
Cocklebur plant response rating (cocklebur; [9]): 20

Source: patent US20060069132A1, “Azolecarboxamide herbicides” (priority 2004, published 2006)
